Patent US9399038B2, “Benzothiophene compound” (ASTELLAS PHARMA INC., priority 2013, dated 2016)
Structures can show the parent of a compound that is named as a salt.

Columns and labels:
vagotomized rat = experiment: Action to tenderness threshold value in vagotomized rat; type: in vivo; conditions: for significance versus solvent group: at the dose shown in Table 6, P<0.05; for Improvement rate (tenderness threshold value): male SD rats, 3 mg/kg oral, after 2 hours, sham = 100%, surgery solvent group = 0%
Procedure: (§1) Moreover, in Test Examples 2 to 6, a 0.5% methyl cellulose suspension was used as a test drug.
The model was made based on Neuroscience, 2009, vol. 164, p. 1252-1262. Male SD rats (provided by Japan SLC, Inc, Japan) were anesthetized with somnopentyl, followed by shaving near a xiphisternum. Incision was performed along the midline from the xiphisternum to the tail side. A stomach and an esophagus under a diaphragm were exposed, and vagus nerves on both sides of the esophagus were transected. Muscle and skin were sutured in order. 1 to 3 weeks after the surgery, a decrease in the tenderness threshold value was confirmed. The solvent or the test drug was orally administered, and after 2 hours, the tenderness threshold value was measured using Randall-Selitto equipment (manufactured by Muromachi Kikai Co., Ltd.) in a gastrocnemius muscle. A significant difference test of a solvent group and a test drug group was performed in comparison between groups using Student's t-test or Dunnett multiple comparison test. With P<0.05 in each assay, it was determined that there was a significant difference.
Effectiveness of several representative Example compounds of the invention is shown in the following Table as an improvement rate when a value of a group in which the solvent was administered into a sham surgery group was set as 100%, and a value of a group in which the solvent was administered into a surgery group was set as 0%.

[1] = test system: adjuvant-induced arthritis rat; experiment: Inhibitory effect on hindlimb weight distribution in adjuvant-induced arthritis rat; type: in vivo; conditions: for significance versus solvent group: at the dose shown in Table 4, P<0.05; for MED (minimum effective dose): female Lewis rat, oral, 1 or 2 hours after administration, hindlimb weight distribution
Procedure: as §1
This model is a model to study inflammatory pain. 50 μL of killed Mycobacterium tuberculosis H37Ra (manufactured by DIFCO Laboratories) suspended in a liquid paraffin was subcutaneously administered into a right hindlimb footpad of a female Lewis rat (provided by Charles River Laboratories, Japan) so as to be 10 mg/mL. Next day, the solvent or the test drug was orally administered. After 1 or 2 hours, the weight distribution between the left and the right hindlimbs was measured using an Incapacitance Tester (manufactured by Linton Instrumentation). A significant difference test of a solvent group and a test drug group was performed in comparison between groups using Student's t-test or Dunnett multiple comparison test. With P<0.05 in each assay, it was determined that there was a significant difference.
Effectiveness in the adjuvant-induced arthritis rat test of the several representative Example compounds of the invention is shown in the following Table.

[2] = test system: reserpine-induced myalgia model; experiment: Effect on tenderness threshold value in reserpine-induced myalgia model; type: in vivo, rat
Procedure: as §1
This model is a model which imitates a fibromyalgia disease. This test was performed based on Pain, 2009, vol. 146, p 26-33. Reserpine (1 mg/kg) was subcutaneously administered into male SD rats (provided by Japan SLC, Inc, Japan) once a day for 3 days. After 5 days, the solvent or the test drug was orally administered. After 2 hours, a tenderness threshold value was measured using Randall-Selitto equipment (manufactured by Muromachi Kikai Co., Ltd.) in a gastrocnemius muscle. A significant difference test of a solvent group and a test drug-administered group was performed in comparison between groups using Student's t-test or Dunnett multiple comparison test. Here, a value obtained by administering the solvent to a normal rat to which reserpine was not administered was set as 100%, and a value of the reserpine group into which the solvent was administered was set as 0%. With P<0.05 in each assay, it was determined that there was a significant difference.

[3] = test system: abdominal pain by rat colorectal distension; experiment: Effect on abdominal pain by rat colorectal distension; type: in vivo; conditions: for MED (minimum effective dose): Wistar male rats, oral, 1 hour after administration, abdominal flexion behavior; for significance versus solvent group: at the dose shown in Table 3, P<0.05
Procedure: as §1
After Wistar male rats (CLEA Japan, Inc.) were anesthetized with isoflurane, a balloon was inserted into the colon. After awakening, the test drug was orally administered, and after 1 hour, abdominal pain induced by balloon expansion was measured as an indicator of an abdominal flexion behavior. Each stimulus (15, 30, 45, 60 mmHg) was repeatedly performed for 5 minutes at 5-minute intervals. A significant difference test of a solvent group and a test drug group was performed in comparison between groups using Student's t-test or Dunnett multiple comparison test. With P<0.05 in each assay, it was determined that there was a significant difference.
Effectiveness in the abdominal pain test by rat colorectal distension of the several representative Example compounds of the invention is shown in the following Table (In the Table, MED means a minimum effective dose. The same shall apply hereinafter.).

[4] = test system: monoiodoacetate-induced osteoarthritis model; experiment: Inhibitory effect on hindlimb weight distribution in monoiodoacetate-induced osteoarthritis model; type: in vivo, rat; conditions: for significance versus solvent group: at the dose shown in Table 5, P<0.05; for Improvement rate: male SD rats, 1 mg/kg oral, 3 weeks after MIA, 1 or 2 hours after administration
Procedure: as §1
This model is a model of osteoarthritis, and action to osteoarthritis pain can be evaluated using the model. This test was performed based on The Journal of Pharmacology and Experimental Therapeutics, 2010, vol. 334, p. 955-963. Under isoflurane anesthesia, 1 mg/site of monoiodoacetate (hereinafter referred to as MIA) (manufactured by Sigma-Aldrich Co., LLC) solution was singly administered into the right knee joint cavity of male SD rats (provided by Charles River Laboratories, Japan). MIA was dissolved in physiological saline, and 50 μL thereof was administered using a 27 gauge×0.5 inches needle. 3 weeks after the MIA administration, the solvent or the test drug was orally administered. After 1 or 2 hours, the weight distribution between the left and the right hindlimb was measured using an Incapacitance Tester (manufactured by Linton Instrumentation). A significant difference test of a solvent group and a test drug group was performed in comparison between groups using Student's t-test or Dunnett multiple comparison test. With P<0.05 in each assay, it was determined that there was a significant difference.
Effectiveness with respect to a monoiodoacetate-induced osteoarthritis model of the several representative Example compounds of the invention is shown in the following Table.

IK1 channel [5] = target: T1, IK1 channel (Homo sapiens, UniProt O15554); experiment: IK1 channel opening activity measurement test (membrane potential, T84 cells); type: cell-based; design: T84 cells (which is known as IK1 channel expressing cells); endogenous in cells; host or cells: T84 cells; conditions: NS-309 0.2 μM = 100%, DMSO = 0%, read-out: EC50 of IK1 channel opening action
Procedure: (§2) Cells ((1) T84 cells (which is known as IK1 channel expressing cells) or (2) human IK1 channel expressing cells (transgene: NM_002250.2, use cells: CHO dhfr-)) were seeded in a 384-well microplate so as to be 12000 cells/well. After incubation overnight, a medium was suctioned, and 20 μL of FLIPR Membrane Potential Assay Reagent (FLIPR Membrane Potential Assay kit, manufactured by Molecular Devices LLC) was added to the medium, followed by incubation at room temperature for 1 hour. Fluorescence intensity was measured at 530 nm/590 nm, which was set as a pre value. 20 μL of a buffer solution containing a test drug (which contains 0.01% pluronic acid and 20 mM Hepes-NaOH (pH7.4); 0.2% CHAPS in HBSS) was added, followed by incubation at room temperature for 1 hour, and a post value was measured. Activity of the test drug was determined from relative values where NS-309 (6,7-dichloro-1H-indole-2,3-dione 3-oxime, manufactured by Sigma-Aldrich Co., LLC; 0.2 μM; DMSO solution) treatment was set as 100%, and DMSO treatment was set as 0%. Activity value (%) at each concentration was plotted against a concentration of the test drug, and EC50 value was calculated by a Logistic regression method.
(§3) The EC50 values of an IK1 channel opening action of the several representative Example compounds of the invention are shown in the following Table (in the Table, No. means a number, and Ex means an Example compound number. The same shall apply hereinafter.). […] With P<0.05 in each assay, it was determined that there was a significant difference.

IK1 channel [6] = target: T1, IK1 channel; experiment: IK1 channel opening activity measurement test (membrane potential, human IK1 channel expressing CHO dhfr- cells); type: cell-based; design: expressed in transfected cells; host or cells: CHO dhfr- cells; conditions: NS-309 0.2 μM = 100%, DMSO = 0%, read-out: EC50 of IK1 channel opening action
Procedure: as §2, §3

| Compound | significance versus solvent group (vagotomized rat) | Improvement rate (tenderness threshold value) (vagotomized rat) | significance versus solvent group [1] | MED (minimum effective dose) [1] [mg/kg] | significance versus solvent group ([2]; 1 mg/kg, P<0.05) | Improvement rate (tenderness threshold value) ([2]; male SD rats, 1 mg/kg oral, after 2 hours, normal rat = 100%, reserpine solvent group = 0%) | MED (minimum effective dose) [3] [mg/kg] | significance versus solvent group [3] | significance versus solvent group [4] | Improvement rate [4] | EC50 (IK1 channel [5]) [nM] | EC50 (IK1 channel [6]) [nM] |
| --- | --- | --- | --- | --- | --- | --- | --- | --- | --- | --- | --- | --- |
| Cc1sc2cc(Cl)ccc2c1-c1ccc(N2CCO[C@H](CNC3CCC3)C2)c(C(=O)O)c1 [Ex10, 5-(6-chloro-2-methyl-1-benzothiophen-3-yl)-2-{(2R)-2-[(cyclobutylamino)methyl]morpholin-4-yl}benzoic acid monohydrochloride] | significant activity | >50% (3 mg/kg) | significant activity | 3 | significant activity | higher than 50% | 0.3 | significant activity | significant activity | >50% (l mg/kg) | 3890 | 93 |
| Cc1sc2cc(Cl)ccc2c1-c1ccc(N2CCO[C@H](CNC(C)(C)C)C2)c(C(=O)O)c1 [Ex16] | – | – | – | – | – | – | – | – | – | – | 8040 | 33 |
| O=C(O)c1cc(-c2csc3cc(C(F)(F)F)ccc23)ccc1N1CCO[C@H](CNC2CCC2)C1 [Ex12] | – | – | – | – | – | – | – | – | – | – | 1750 | 24 |
| Cc1sc2cc(Cl)c(F)cc2c1-c1ccc(N2CCO[C@H](CNC3CCC3)C2)c(C(=O)O)c1 [Ex18, 5-(6-chloro-5-fluoro-2-methyl-1-benzothiophen-3-yl)-2-{(2R)-2-[(cyclobutylamino)methyl]morpholin-4-yl}benzoic acid hydrochloride] | significant activity | >50% (3 mg/kg) | significant activity | 3 | – | – | 0.3 | significant activity | significant activity | >50% (1 mg/kg) | 920 | 48 |
| Cc1sc2cc(F)ccc2c1-c1ccc(N2CCO[C@H](CNC3CCC3)C2)c(C(=O)O)c1 [Ex13] | – | – | – | – | – | – | – | – | – | – | 3760 | 52 |
| CC(C)(C)NC[C@H]1CCCN(c2ccc(-c3csc4cc(C(F)(F)F)ccc34)cc2C(=O)O)C1 [Ex14, 2-{(3R)-3-[(tert-butylamino)methyl]piperidin-1-yl}-5-[6-(trifluoromethyl)-1-benzothiophen-3-yl]benzoic acid hydrochloride] | significant activity | >50% (3 mg/kg) | significant activity | 1 | – | – | – | – | significant activity | 42% (1 mg/kg) | 3170 | 28 |
| O=C(O)c1cc(-c2c(F)sc3cc(Cl)ccc23)ccc1N1CCO[C@H](CNC2CCC2)C1 [Ex11, 5-(6-chloro-2-fluoro-1-benzothiophen-3-yl)-2-{(2R)-2-[(cyclobutylamino)methyl]morpholin-4-yl}benzoic acid hydrochloride] | – | – | significant activity | 3 | – | – | – | – | significant activity | >50% (l mg/kg) | 3070 | 11 |
| Cc1sc2cc(Cl)c(F)cc2c1-c1ccc(N2CCO[C@H](CNC(C)(C)C)C2)c(C(=O)O)c1 [Ex19] | – | – | – | – | – | – | – | – | – | – | 1500 | 5.5 |
| O=C(O)c1cc(-c2csc3cc(C(F)(F)F)c(Cl)cc23)ccc1N1CCO[C@H](CNC2CCC2)C1 [Ex15, 5-[5-chloro-6-(trifluoromethyl)-1-benzothiophen-3-yl]-2-{(2R)-2-[(cyclobutylamino)methyl]morpholin-4-yl}benzoic acid hydrochloride] | significant activity | >50% (3 mg/kg) | – | – | – | – | – | – | – | – | – | – |
